Reference: US20240238299A1, “USE OF PYRROLOPYRIMIDINE COMPOUND” (GUANGZHOU JOYO PHARMATECH CO., LTD, priority 2021, published 2024)

Tested on: MOG35-55-induced experimental autoimmune encephalomyelitis (EAE) mouse model
Test: MOG35-55-induced EAE mouse model, clinical scoring and incidence
Assay type: in vivo, C57BL/6 mice

## CN(c1ncnc2[nH]ccc12)[C@@H]1CCc2cc(C#N)nn2C1 [Compound I]
G6, 10 mg/kg BID oral, day 27
  EAE clinical scoring, Mean: 0.30
  incidence of EAE: 30%
G7, 20 mg/kg BID oral, day 0
  EAE clinical scoring, Mean: 0.00
  incidence of EAE: 0%
G7, 20 mg/kg BID oral, day 2
  EAE clinical scoring, Mean: 0.00
  incidence of EAE: 0%
G7, 20 mg/kg BID oral, day 4
  EAE clinical scoring, Mean: 0.00
  incidence of EAE: 0%
G7, 20 mg/kg BID oral, day 7
  EAE clinical scoring, Mean: 0.00
  incidence of EAE: 0%
G7, 20 mg/kg BID oral, day 9
  EAE clinical scoring, Mean: 0.00
  incidence of EAE: 0%
G7, 20 mg/kg BID oral, day 11
  EAE clinical scoring, Mean: 0.00
  incidence of EAE: 0%
G7, 20 mg/kg BID oral, day 12
  EAE clinical scoring, Mean: 0.00
  incidence of EAE: 0%
G7, 20 mg/kg BID oral, day 13
  EAE clinical scoring, Mean: 0.30
  incidence of EAE: 30%
G7, 20 mg/kg BID oral, day 14
  EAE clinical scoring, Mean: 0.60
  incidence of EAE: 50%
G7, 20 mg/kg BID oral, day 15
  EAE clinical scoring, Mean: 0.80
  incidence of EAE: 60%
G7, 20 mg/kg BID oral, day 16
  EAE clinical scoring, Mean: 0.90
  incidence of EAE: 60%
G7, 20 mg/kg BID oral, day 17
  EAE clinical scoring, Mean: 1.00
  incidence of EAE: 70%
G7, 20 mg/kg BID oral, day 18
  EAE clinical scoring, Mean: 1.10
  incidence of EAE: 80%
G7, 20 mg/kg BID oral, day 19
  EAE clinical scoring, Mean: 1.10
  incidence of EAE: 80%
G7, 20 mg/kg BID oral, day 20
  EAE clinical scoring, Mean: 0.90
  incidence of EAE: 70%
G7, 20 mg/kg BID oral, day 21
  EAE clinical scoring, Mean: 0.80
  incidence of EAE: 60%
G7, 20 mg/kg BID oral, day 22
  EAE clinical scoring, Mean: 0.50
  incidence of EAE: 30%
G7, 20 mg/kg BID oral, day 23
  EAE clinical scoring, Mean: 0.50
  incidence of EAE: 30%
G7, 20 mg/kg BID oral, day 24
  EAE clinical scoring, Mean: 0.30
  incidence of EAE: 10%
G7, 20 mg/kg BID oral, day 25
  EAE clinical scoring, Mean: 0.30
  incidence of EAE: 10%
G7, 20 mg/kg BID oral, day 26
  EAE clinical scoring, Mean: 0.30
  incidence of EAE: 10%
G7, 20 mg/kg BID oral, day 27
  EAE clinical scoring, Mean: 0.30
  incidence of EAE: 10%
G8, 20 mg/kg QD oral, day 0
  EAE clinical scoring, Mean: 0.00
  incidence of EAE: 0%
G8, 20 mg/kg QD oral, day 2
  EAE clinical scoring, Mean: 0.00
  incidence of EAE: 0%
G8, 20 mg/kg QD oral, day 4
  EAE clinical scoring, Mean: 0.00
  incidence of EAE: 0%
G8, 20 mg/kg QD oral, day 7
  EAE clinical scoring, Mean: 0.00
  incidence of EAE: 0%
G8, 20 mg/kg QD oral, day 9
  EAE clinical scoring, Mean: 0.00
  incidence of EAE: 0%
G8, 20 mg/kg QD oral, day 11
  EAE clinical scoring, Mean: 0.00
  incidence of EAE: 0%
G8, 20 mg/kg QD oral, day 12
  EAE clinical scoring, Mean: 0.00
  incidence of EAE: 0%
G8, 20 mg/kg QD oral, day 13
  EAE clinical scoring, Mean: 0.20
  incidence of EAE: 20%
G8, 20 mg/kg QD oral, day 14
  EAE clinical scoring, Mean: 0.60
  incidence of EAE: 50%
G8, 20 mg/kg QD oral, day 15
  EAE clinical scoring, Mean: 1.10
  incidence of EAE: 70%
G8, 20 mg/kg QD oral, day 16
  EAE clinical scoring, Mean: 1.30
  incidence of EAE: 70%
G8, 20 mg/kg QD oral, day 17
  EAE clinical scoring, Mean: 1.40
  incidence of EAE: 80%
G8, 20 mg/kg QD oral, day 18
  EAE clinical scoring, Mean: 1.30
  incidence of EAE: 70%
G8, 20 mg/kg QD oral, day 19
  EAE clinical scoring, Mean: 1.10
  incidence of EAE: 70%
G8, 20 mg/kg QD oral, day 20
  EAE clinical scoring, Mean: 0.80
  incidence of EAE: 50%
G8, 20 mg/kg QD oral, day 21
  EAE clinical scoring, Mean: 0.70
  incidence of EAE: 50%
G8, 20 mg/kg QD oral, day 22
  EAE clinical scoring, Mean: 0.40
  incidence of EAE: 40%
G8, 20 mg/kg QD oral, day 23
  EAE clinical scoring, Mean: 0.40
  incidence of EAE: 40%
G8, 20 mg/kg QD oral, day 24
  EAE clinical scoring, Mean: 0.30
  incidence of EAE: 30%
G8, 20 mg/kg QD oral, day 25
  EAE clinical scoring, Mean: 0.30
  incidence of EAE: 30%
G8, 20 mg/kg QD oral, day 26
  EAE clinical scoring, Mean: 0.30
  incidence of EAE: 30%
G8, 20 mg/kg QD oral, day 27
  EAE clinical scoring, Mean: 0.30
  incidence of EAE: 30%
Twice daily (BID), oral, EAE clinical symptoms
  effective dose starting at: 3 mg/kg
